Reference: ChEMBL document CHEMBL4138256, “Design, Synthesis, and Biological Activity of 1,2,3-Triazolobenzodiazepine BET Bromodomain Inhibitors” (ACS Med Chem Lett, 2017)

Tests used:
[1] = target: T1, Bromodomain-containing protein 2 (Homo sapiens, UniProt P25440); test: Inhibition of human His-tagged Brd2 bromodomain 1 expressed in Escherichia coli BL21 (DE3) preincubated for 30 mins followed by addition of biotinylated acetyl-histone H4 peptide and measured after 1 hr by AlphaScreen assay
Target sequence in this assay (P25440 whole entry): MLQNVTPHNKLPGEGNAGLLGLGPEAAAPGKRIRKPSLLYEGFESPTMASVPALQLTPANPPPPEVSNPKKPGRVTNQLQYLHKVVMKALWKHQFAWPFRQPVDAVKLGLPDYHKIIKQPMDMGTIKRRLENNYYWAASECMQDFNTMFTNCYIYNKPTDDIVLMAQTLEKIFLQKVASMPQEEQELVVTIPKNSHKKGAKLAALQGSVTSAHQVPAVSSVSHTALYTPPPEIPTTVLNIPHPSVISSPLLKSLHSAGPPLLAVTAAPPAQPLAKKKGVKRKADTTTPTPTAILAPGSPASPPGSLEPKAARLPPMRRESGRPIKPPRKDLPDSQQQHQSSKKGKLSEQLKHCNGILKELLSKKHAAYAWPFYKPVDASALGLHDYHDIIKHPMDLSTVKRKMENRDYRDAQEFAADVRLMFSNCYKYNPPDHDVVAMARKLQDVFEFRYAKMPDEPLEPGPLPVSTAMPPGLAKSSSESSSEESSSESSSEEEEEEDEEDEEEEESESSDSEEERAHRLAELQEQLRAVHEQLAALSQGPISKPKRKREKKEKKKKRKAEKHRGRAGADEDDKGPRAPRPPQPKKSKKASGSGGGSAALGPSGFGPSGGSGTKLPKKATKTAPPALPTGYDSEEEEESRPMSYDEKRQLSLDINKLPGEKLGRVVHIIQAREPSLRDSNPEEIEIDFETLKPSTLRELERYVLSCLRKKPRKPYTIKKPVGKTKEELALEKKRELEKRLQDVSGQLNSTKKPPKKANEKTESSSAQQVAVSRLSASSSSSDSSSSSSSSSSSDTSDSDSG

[2] = target: T1, Bromodomain-containing protein 2; test: Inhibition of human His-tagged Brd2 bromodomain 2 expressed in Escherichia coli BL21 (DE3) preincubated for 30 mins followed by addition of biotinylated acetyl-histone H4 peptide and measured after 1 hr by AlphaScreen assay
Target sequence in this assay (P25440 whole entry): as above

[3] = target: Bromodomain-containing protein 3 (Homo sapiens, UniProt Q15059); test: Inhibition of human His-tagged Brd3 bromodomain 1 expressed in Escherichia coli BL21 (DE3) preincubated for 30 mins followed by addition of biotinylated acetyl-histone H4 peptide and measured after 1 hr by AlphaScreen assay
[4] = target: T2, Bromodomain-containing protein 4 (Homo sapiens, UniProt O60885)
Description: Inhibition of human His-tagged Brd4 bromodomain 1 expressed in Escherichia coli BL21 (DE3) preincubated for 30 mins followed by addition of biotinylated acetyl-histone H4 peptide and measured after 1 hr by AlphaScreen assay

[5] = target: T2, Bromodomain-containing protein 4; remark: listed apart in the source
Description: Inhibition of human His-tagged Brd4 bromodomain 2 expressed in Escherichia coli BL21 (DE3) preincubated for 30 mins followed by addition of biotinylated acetyl-histone H4 peptide and measured after 1 hr by AlphaScreen assay

[6] = Antiproliferative activity against human MLL-AF9 cells after 72 hrs by Cell-TiterGlo assay; assay type: functional, cell-based; details: MLL-AF9, 72 h
[7] = system: HL-60; test: Antiproliferative activity against human HL60 cells after 72 hrs by Cell-TiterGlo assay; assay type: functional, cell-based; details: HL-60, 72 h
[8] = system: MV4-11; test: Antiproliferative activity against human MV4-11 cells after 72 hrs by Cell-TiterGlo assay; assay type: functional, cell-based; details: MV4-11, 72 h
[9] = system: DOHH-2; test: Antiproliferative activity against human DOHH2 cells after 72 hrs by Cell-TiterGlo assay; assay type: functional, cell-based; details: DOHH-2, 72 h
[10] = system: RPMI-8226; test: Antiproliferative activity against human RPMI8226 cells after 72 hrs by Cell-TiterGlo assay; assay type: functional, cell-based; details: RPMI-8226, 72 h
[11] = system: SUD4; test: Antiproliferative activity against human SU-DHL4 cells after 72 hrs by Cell-TiterGlo assay; assay type: functional, cell-based; details: SU-DHL-4, 72 h
[12] = system: CCRF-CEM; test: Antiproliferative activity against human CCRF-CEM cells after 72 hrs by Cell-TiterGlo assay; assay type: functional, cell-based
[13] = system: Raji; test: Antiproliferative activity against human Raji cells after 72 hrs by Cell-TiterGlo assay; assay type: functional, cell-based
[14] = system: HEL 92.1.7; test: Antiproliferative activity against human HEL 92.1.7 cells after 72 hrs by Cell-TiterGlo assay; assay type: functional, cell-based; details: HEL 92.1.7, 72 h
[15] = system: K562; test: Antiproliferative activity against human K562 cells after 72 hrs by Cell-TiterGlo assay; assay type: functional, cell-based; details: K562, 72 h
[16] = Antiproliferative activity against mouse 494H cells after 72 hrs by Cell-TiterGlo assay; assay type: functional, cell-based
[17] = Antiproliferative activity against mouse 148I cells after 72 hrs by Cell-TiterGlo assay; assay type: functional, cell-based
[18] = target: T1, Bromodomain-containing protein 2
Target sequence in this assay (P25440 whole entry, looked up): as the sequence (P25440 whole entry) above
Description: Binding affinity to His-tagged human Brd2 bromodomain 1 (1 to 473 residues) assessed as association rate constant by suface plasmon resonance assay

[19] = target: T1, Bromodomain-containing protein 2; remark: listed apart in the source
Target sequence in this assay (P25440 whole entry, looked up): as the sequence (P25440 whole entry) above
Description: Binding affinity to His-tagged human Brd2 bromodomain 2 (1 to 473 residues) assessed as association rate constant by surface plasmon resonance assay

Chain of Bromodomain-containing protein 3 (Q15059 whole entry): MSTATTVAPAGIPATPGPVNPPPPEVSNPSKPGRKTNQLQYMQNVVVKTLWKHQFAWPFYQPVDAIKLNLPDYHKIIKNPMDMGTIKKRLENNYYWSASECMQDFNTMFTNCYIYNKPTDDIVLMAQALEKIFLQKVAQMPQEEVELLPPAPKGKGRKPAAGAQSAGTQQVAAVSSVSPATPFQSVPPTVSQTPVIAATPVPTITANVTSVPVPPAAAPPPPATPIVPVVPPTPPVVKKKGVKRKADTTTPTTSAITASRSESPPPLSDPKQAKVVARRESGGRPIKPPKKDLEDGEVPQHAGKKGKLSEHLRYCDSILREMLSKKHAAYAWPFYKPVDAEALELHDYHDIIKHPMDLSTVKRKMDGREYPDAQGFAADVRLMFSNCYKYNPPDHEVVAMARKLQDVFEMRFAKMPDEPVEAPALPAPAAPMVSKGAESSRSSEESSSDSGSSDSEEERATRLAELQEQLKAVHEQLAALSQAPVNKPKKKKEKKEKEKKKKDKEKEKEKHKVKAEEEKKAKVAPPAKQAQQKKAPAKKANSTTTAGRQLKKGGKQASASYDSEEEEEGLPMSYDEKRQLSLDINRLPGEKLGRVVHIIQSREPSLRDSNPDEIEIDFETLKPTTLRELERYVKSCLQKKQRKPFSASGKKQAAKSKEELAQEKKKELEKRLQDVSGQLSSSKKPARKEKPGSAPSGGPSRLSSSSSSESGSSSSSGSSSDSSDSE

Compound | IC50 [1] [nM] | IC50 [2] [nM] | IC50 [3] [nM] | IC50 [4] [nM] | IC50 [5] [nM] | also measured
Cc1nnn2c1-c1ccccc1N(c1ccccc1)C(=O)C2 | > 10000 | > 10000 | > 10000 | > 10000 | > 10000 | –
Cc1nnn2c1-c1ccc(C(O)C(F)(F)F)cc1N(c1ccc(Cl)cc1)CC2 (stereo not drawn) | – | – | – | 43 | 23 | –
Cc1nnn2c1-c1ccc(C#N)cc1N(c1ccc(Cl)cc1)CC2 | – | – | – | 11 | 13 | –
Cc1nnn2c1-c1ccccc1N(c1ccc(Cl)cc1)CC2CCO (stereo not drawn) | 340 | 45 | 44 | 52 | 36 | –
Cc1nnn2c1-c1ccc(-c3ccc(N)nc3)cc1N(c1ccc(Cl)cc1)CC2 | – | – | 9 | 13 | 6 | EC50 [6]: 77 nM; EC50 [7]: 152 nM; EC50 [8]: 140 nM; EC50 [9]: 561 nM; EC50 [10]: 631 nM; EC50 [11]: 977 nM; EC50 [12]: 1360 nM; EC50 [13]: 560 nM; EC50 [14]: 400 nM; EC50 [15]: > 10000 nM; EC50 [16]: 166 nM; EC50 [17]: 1280 nM; Ka [18]: 2.9 ×10⁵ /M/s; Ka [19]: 2.62 ×10⁵ /M/s
Cc1sc2c(c1C)C(c1ccc(Cl)cc1)=NC(CC(=O)OC(C)(C)C)c1nnc(C)n1-2 (stereo not drawn) | – | – | – | – | – | EC50 [6]: 64 nM; EC50 [7]: 51 nM; EC50 [8]: 39 nM; EC50 [9]: 279 nM; EC50 [10]: 258 nM; EC50 [11]: 660 nM; EC50 [12]: 2040 nM; EC50 [13]: 330 nM; EC50 [14]: 180 nM; EC50 [15]: > 10000 nM; EC50 [16]: 122 nM; EC50 [17]: 284 nM
Cc1nnn2c1-c1ccccc1N(Cc1cccc(Br)c1)CC2 | 129 | 44 | 21 | 29 | 17 | –
Cc1nnn2c1-c1ccc(C(=O)NS(=O)(=O)c3ccccc3)cc1N(c1ccc(Cl)cc1)CC2 | 54 | 25 | 21 | 21 | 10 | –
Cc1nnn2c1-c1ccc(-c3nn[nH]n3)cc1N(c1ccc(Cl)cc1)CC2 | – | – | – | 3 | 2 | –
Cc1nnn2c1-c1ccc(C(=O)O)cc1N(c1ccc(Cl)cc1)CC2 | 185 | 50 | 16 | – | – | –
Cc1nnn2c1-c1ccc(C(=O)NC(c3ccccc3)c3ccccc3)cc1N(c1ccc(Cl)cc1)CC2 | 151 | 44 | 39 | – | – | –
Cc1ccc(-c2ccc3c(c2)N(c2ccc(Cl)cc2)CCn2nnc(C)c2-3)cn1 | – | – | 10 | 16 | 7 | –
Cc1nnn2c1-c1ccccc1N(c1ccccc1)CC2 | – | – | – | 28 to 39.4 | 12 to 21.5 | –
Cc1nnn2c1-c1ccccc1N(c1ccc(Cl)cc1)C[C@H]2C | 38 | 25 | – | – | – | –
Cc1nnn2c1-c1ccc(C(=O)NCc3ccccc3)cc1N(c1ccc(Cl)cc1)CC2 | – | – | – | 35 | 15 | –
Cc1nnn2c1-c1ccc(Cn3cccn3)cc1N(c1ccc(Cl)cc1)CC2 | – | – | 52 | 45 | 38 | –
Cc1nnn2c1-c1ccccc1N(c1ccc(Cl)cc1)C[C@@H]2C | 53 | 34 | – | – | – | –
Cc1nnn2c1-c1ccc(C(=O)N[C@@H](C)c3ccc(F)cc3)cc1N(c1ccc(Cl)cc1)CC2 | – | – | 23 | – | – | –
Cc1nnn2c1-c1ccc(C(N)=O)cc1N(c1ccc(Cl)cc1)CC2 | – | – | – | 6 | 2 | –
Cc1nnn2c1-c1ccc(C(=O)Nc3ccccc3)cc1N(c1ccc(Cl)cc1)CC2 | – | – | 14 | – | – | –
Cc1nnn2c1-c1ccc(C(=O)NS(C)(=O)=O)cc1N(c1ccc(Cl)cc1)CC2 | – | – | – | 13 | 7 | –
Cc1nnn2c1-c1ccc(C(=O)N[C@H](C)c3ccccc3)cc1N(c1ccc(Cl)cc1)CC2 | – | – | 13 | – | – | –
Cc1nnn2c1-c1ccc(C(=O)N[C@@H](C)c3ccccc3)cc1N(c1ccc(Cl)cc1)CC2 | – | – | 12 | – | – | –
Cc1nnn2c1-c1ccc(-c3cc[nH]n3)cc1N(c1ccc(Cl)cc1)CC2 | – | – | 10 | 14 | 7 | EC50 [6]: 111 nM; EC50 [7]: 139 nM; EC50 [8]: 200 nM; EC50 [9]: 285 nM; EC50 [10]: 495 nM; EC50 [11]: 570 nM; EC50 [12]: 2220 nM; EC50 [13]: 780 nM; EC50 [14]: 720 nM; EC50 [15]: > 10000 nM; EC50 [16]: 194 nM; EC50 [17]: 973 nM
